Results reported in US20220371988A1, “TRPV1 AGONIST AND PREPARATION METHOD THEREFOR AND USE THEREOF” (NANJING DELOVA BIOTECH CO. LTD., priority 2019, published 2022).
In brackets after ≈: the same amount, converted by molar mass. Where two headings read alike, the source gives them in different places.

How the values were obtained:
[1] = system: rats as models of pain after incision; assay: Thermal hyperalgesia test (Hargreaves method) in rats as models of pain after incision; format: in vivo, SD rat
[2] = system: rats as models of pain after incision; assay: Mechanical allodynia test (Von Frey method) in rats as models of pain after incision; format: in vivo, SD rat
[3] = parent drug, cited from earlier work
[4] = HD group: A-17 0.6 mg/animal, parent 0.36 mg/animal
[5] = LD group: A-17 0.15 mg/animal, parent 0.09 mg/animal

| Compound | Release half-life t1/2 (pH 4.5) | Release half-life t1/2 (pH 7.4) | Effect on overall thermal hyperalgesia (AUC of time-TWL curve) within 7 days vs blank preparation ([1]; HD group: A-17 0.6 mg/animal (P<0.001), parent 0.36 mg/animal (P<0.01)) | Duration of analgesic effect on thermal hyperalgesia [1, 4] | Effect on overall thermal hyperalgesia (AUC of time-TWL curve) within 7 days vs blank preparation [1, 5] | Time after surgery at which thermal withdrawal latency (TWL) was increased vs blank preparation group (P<0.05) ([1]; LD group: A-17 0.15 mg/animal, parent 0.09 mg/animal, injection at incision site) | Time after surgery at which paw withdrawal threshold (PWT) was increased vs blank preparation group (P<0.05) [2, 4] | Time after surgery at which paw withdrawal threshold (PWT) was increased vs blank preparation group (P<0.05) [2, 5] | Solubility in water ([3]; at 25° C.) | Log P [3] |
| --- | --- | --- | --- | --- | --- | --- | --- | --- | --- | --- |
| (E)-2-methoxy-4-(8-methylnonanamide)phenyl 2-([[1,4′-bipiperidin]-1′-yl) propanoate hydrochloride [Compound A-16] | About 73 h | About 157 h |  |  |  |  |  |  |  |  |
| COc1cc(CNC(=O)CCCC/C=C/C(C)C)ccc1O [trans-8-methyl-N-vanillyl-6-nonenamide] |  |  | effective in relieving the overall thermal hyperalgesia | 3 days | no significant effect | 1 h | 4 h | no significant effect | 8.41 µg/mL (≈ 27.5 µM) | 3.8 |
